Measured values published in patent US12396971B2, “Administration of beta-hydroxybutyrate and related compounds in humans for the treatment and/or prevention of respiratory illnesses” (AXCESS GLOBAL SCIENCES, LLC, priority 2020, dated 2025).

Tests used:
Type in all cases: in vivo, humans
[1] = tested on: respiratory illness, COVID-19; test: Symptoms and recovery monitoring in individuals with COVID-19 administered R-beta-hydroxybutyrate; conditions: composition comprising 10 g twice a day
Method: (§1) A composition comprising 10 g of R-beta-hydroxybutyrate was administered to individuals twice a day. […] The patients were tested and monitored to determine the impact of administration of beta-hydroxybutyrate on the illness progression and recovery. Administration of the beta-hydroxybutyrate reduced the number of symptoms and the severity of symptoms. […] Since quicker returns to normal values may indicate less chances for long-term continuance of viral respiratory illnesses (e.g., long-haul or long-term Covid-19), administration of beta-hydroxybutyrate may be associated with decreased potential for long-term continuance of symptoms.

[2] = tested on: respiratory illness, COVID-19; test: Cardiovascular endurance, standard 15 minute cycling test over 4 days; conditions: 10 g vs not administered, FIG. 3
Method: as §1
FIG. 3 graphically illustrates endurance capacity monitoring in individuals over 4 days for individuals administered 10 g of R-beta-hydroxybutyrate and not administered 10 g of R-beta-hydroxybutyrate. Cardiovascular endurance was measured using a standard 15 minute cycling test and is illustrated in FIG. 3 as a percentage of normal.

[3] = tested on: respiratory illness, COVID-19; test: Cough severity by Cough Severity Visual Analogue Scale over 4 days; conditions: 10 g, orally, vs not administered, FIG. 1
Method: as §1
FIG. 1 graphically illustrates cough measured over 4 days for individuals administrated 10 g of R-beta-hydroxybutyrate and not administered 10 g of R-beta-hydroxybutyrate. Cough severity was measured using the Cough Severity Visual Analogue Scale. As illustrated, cough severity was lower with administration of 10 g of R-beta-hydroxybutyrate. Furthermore, cough severity was not as high when beta-hydroxybutyrate was orally administered.

[4] = tested on: respiratory illness, COVID-19; test: Lung function (FEV) measurements over 4 days; conditions: FIG. 2
Method: as §1
FIG. 2 graphically illustrates lung function measurements over 4 days for individuals administered 10 g of R-beta-hydroxybutyrate and not administered 10 g of R-beta-hydroxybutyrate. […] As illustrated, improvement in FEV plateaued when beta-hydroxybutyrate was not administered while it continued to improve when R-beta-hydroxybutyrate was administered. Reduction in the chances of plateauing lung function (e.g., at reduced levels) may decrease potential for long-term continuance of symptoms such as those found in long term or long-haul COVID-19 sufferers (e.g., individuals who had COVID-19 and continue to present with symptoms 4 or more weeks after infection).

Compound: C[C@@H](O)CC(=O)O [R-beta-hydroxybutyrate, (R)-3-Hydroxybutyric acid]
- number of symptoms [1]: reduced
- recovery time [1]: decreased
- severity of symptoms [1]: reduced
- cardiovascular endurance as a percentage of normal [2]: overall better
- recovery to normal cardiovascular endurance [2]: quicker recovery to normal
- cough severity (Cough Severity Visual Analogue Scale) [3]: lower
- time for lung function to improve to normal ([4]; 10 g vs not administered (FEV plateaued without)): improve to normal more quickly
- FEV (as a % of normal FEV) ([4]; 10 g vs not administered): higher overall
